Assay results from the NIST ThermoML archive (doi:10.1021/je401097f).

Legend:
[1] = refractive index (other wavelength) (dimensionless); settings: 100 kPa, Liquid, Wavelength=632.8 nm, Standard Abbe refractometry
[2] = refractive index (other wavelength) (dimensionless); xn = mol fraction of the nth substance listed; settings: 296.36 K, 100 kPa, Liquid, Wavelength=632.8 nm, Standard Abbe refractometry

CCCCCCCCC [nonane]
[1]
Settings	refractive index
290.88 K	1.4053
291.94 K	1.4048
292.73 K	1.4044
293.55 K	1.404
294.5 K	1.4036
295.51 K	1.4031
296.48 K	1.4026
297.42 K	1.4022

CCCCCCCCC [nonane] + O=[N+]([O-])c1ccccc1
Settings	refractive index
[2], x2 = 0	1.4029

O=[N+]([O-])c1ccccc1 [nitrobenzene] + CCCCCCCCC
[2]
Settings	refractive index
x1 = 0.153	1.4162
x1 = 0.2	1.4207
x1 = 0.275	1.4284
x1 = 0.379	1.4401
x1 = 0.541	1.4612
x1 = 0.594	1.4691
x1 = 0.688	1.4838
x1 = 0.799	1.5035
x1 = 0.896	1.5231
x1 = 1	1.5467

O=[N+]([O-])c1ccccc1 [nitrobenzene]
[1]
Settings	refractive index
288.97 K	1.5501
289.62 K	1.5497
290.5 K	1.5493
291.45 K	1.5488
292.36 K	1.5484
293.38 K	1.5479
294.4 K	1.5474
295.5 K	1.5469
301.66 K	1.5439
302.72 K	1.5433
303.85 K	1.5428
304.98 K	1.5423
306.08 K	1.5418
307.2 K	1.5412
308.25 K	1.5407
309.34 K	1.5402
